Assay results taken from patent US20080207655A1, “Diaminopyrimidines as P2X3 and P2X2/3 modulators” (Roche Palo Alto LLC, priority 2007, published 2008).
Blank lines part the entries; values can stand above or below the molecule they belong to.

Experiments:
human P2X2/3 receptor = molecular target: T1, human P2X2/3 receptor (Homo sapiens, UniProt P56373+Q9UBL9); test: P2X2/3 FLIPR (Fluorometric Imaging Plate Reader) assay, CHO-K1 cells, α,β-meATP-evoked calcium fluorescence; assay type: cell-based; details: agonist α,β-meATP 5 μM
T1 construct: expressed in transfected cells; host or cells: CHO-K1
T1 sequence (Q9UBL9 1-471): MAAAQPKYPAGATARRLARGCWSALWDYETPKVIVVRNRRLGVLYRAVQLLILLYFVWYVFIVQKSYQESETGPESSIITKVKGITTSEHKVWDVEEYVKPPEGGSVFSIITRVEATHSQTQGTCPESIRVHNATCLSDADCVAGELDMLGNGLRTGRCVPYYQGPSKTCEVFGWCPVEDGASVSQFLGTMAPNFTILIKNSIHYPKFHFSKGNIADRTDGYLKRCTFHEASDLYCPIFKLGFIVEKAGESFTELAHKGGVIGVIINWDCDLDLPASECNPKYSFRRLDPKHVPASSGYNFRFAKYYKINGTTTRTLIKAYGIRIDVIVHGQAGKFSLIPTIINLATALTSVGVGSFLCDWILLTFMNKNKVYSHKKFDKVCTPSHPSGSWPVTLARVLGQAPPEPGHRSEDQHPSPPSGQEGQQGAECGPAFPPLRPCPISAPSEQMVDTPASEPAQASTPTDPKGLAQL
T1 sequence (P56373 1-397): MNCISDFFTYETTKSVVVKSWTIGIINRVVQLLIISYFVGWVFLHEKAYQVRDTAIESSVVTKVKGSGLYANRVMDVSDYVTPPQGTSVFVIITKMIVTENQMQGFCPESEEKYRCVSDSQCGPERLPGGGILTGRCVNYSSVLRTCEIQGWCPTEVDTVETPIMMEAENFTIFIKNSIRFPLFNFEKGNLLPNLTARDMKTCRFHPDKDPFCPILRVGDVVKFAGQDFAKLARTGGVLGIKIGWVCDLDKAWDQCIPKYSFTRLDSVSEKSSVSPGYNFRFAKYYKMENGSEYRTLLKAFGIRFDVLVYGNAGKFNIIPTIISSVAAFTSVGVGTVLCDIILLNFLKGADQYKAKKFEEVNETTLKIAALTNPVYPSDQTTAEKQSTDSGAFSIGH
Experimental: (§1) CHO-K1 cells were transfected with cloned rat P2X3 or human P2X2/3 receptor subunits and passaged in flasks. 18-24 hours before the FLIPR experiment, cells were released from their flasks, centrifuged, and resuspended in nutrient medium at 2.5×10^5 cells/ml. The cells were aliquoted into black-walled 96-well plates at a density of 50,000 cells/well and incubated overnight in 5% CO2 at 37° C. On the day of the experiment, cells were washed in FLIPR buffer (calcium- and magnesium-free Hank's balanced salt solution, 10 mM HEPES, 2 mM CaCl2, 2.5 mM probenecid; FB). Each well received 100 μl FB and 100 μl of the fluorescent dye Fluo-3 AM [2 μM final conc.]. […]
(§2) Test compounds (dissolved in DMSO at 10 mM and serially diluted with FB) or vehicle were added to each well (25 μl of a 4× solution) and allowed to equilibrate for 20 minutes at room temperature. […] Fluorescence was measured for an additional 2 minutes at 1 second intervals after agonist addition. A final addition of ionomycin (5 μM, final concentration) was made to each well of the FLIPR test plate to establish cell viability and maximum fluorescence of dye-bound cytosolic calcium. Peak fluorescence in response to the addition of α,β-meATP (in the absence and presence of test compounds) was measured and inhibition curves generated using nonlinear regression. […]

rat P2X3 receptor = molecular target: T2, rat P2X3 receptor (Rattus norvegicus, UniProt P49654); test: P2X3 FLIPR (Fluorometric Imaging Plate Reader) assay, CHO-K1 cells, α,β-meATP-evoked calcium fluorescence; assay type: cell-based; details: agonist α,β-meATP 1 μM
T2 construct: expressed in transfected cells; host or cells: CHO-K1
T2 sequence (P49654 1-397): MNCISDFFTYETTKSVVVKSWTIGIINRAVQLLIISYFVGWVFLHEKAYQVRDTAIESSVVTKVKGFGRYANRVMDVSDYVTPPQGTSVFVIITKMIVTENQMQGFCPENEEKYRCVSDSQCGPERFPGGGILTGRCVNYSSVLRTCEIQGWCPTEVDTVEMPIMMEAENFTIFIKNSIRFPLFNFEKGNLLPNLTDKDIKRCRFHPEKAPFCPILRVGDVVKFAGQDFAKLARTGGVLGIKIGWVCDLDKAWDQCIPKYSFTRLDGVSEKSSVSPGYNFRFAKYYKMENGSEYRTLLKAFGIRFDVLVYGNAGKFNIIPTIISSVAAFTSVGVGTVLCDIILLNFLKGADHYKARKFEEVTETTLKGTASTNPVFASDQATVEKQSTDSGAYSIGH
Experimental: as §1, §2

- IC50 (human P2X2/3 receptor; read-out: pIC50 for the P2X2/3 receptor (converted)): 41.7 nM
- IC50 (rat P2X3 receptor; read-out: pIC50 for the P2X3 receptor (converted)): 9.77 nM
SMILES: COc1cc(C(C)C)c(Oc2cnc(N)nc2N)cc1I [1b, 5-(5-Iodo-2-isopropyl-4-methoxy-phenoxy)-pyrimidine-2,4-diamine, reference compound]

- melting point: 180 to 180.9 °C
SMILES: COc1cc(C(C)C)c(Oc2cnc(NC(CO)CO)nc2N)cc1S(N)(=O)=O [2a, 5-[4-Amino-2-(2-hydroxy-1-hydroxymethyl-ethylamino)-pyrimidin-5-yloxy]-4-isopropyl-2-methoxy-benzenesulfonamide]

- pIC50 for the P2X2/3 receptor (human P2X2/3 receptor): approximately 7.99
- pIC50 for the P2X3 receptor (rat P2X3 receptor): approximately 8.24
SMILES: C#Cc1cc(Oc2cnc(N)nc2N)c(C(C)C)cc1O [4-(2,4-Diamino-pyrimidin-5-yloxy)-2-ethynyl-5-isopropyl-phenol]

- melting point: 135.5 to 139.1 °C
SMILES: C#Cc1cc(Oc2cnc(NC(CO)CO)nc2N)c(C(C)C)cc1OC [4a, 2-[4-Amino-5-(5-ethynyl-2-isopropyl-4-methoxy-phenoxy)-pyrimidin-2-ylamino]-propane-1,3-diol]
